Measurements reported in patent US11008335B2, “Positive allosteric modulators of the muscarinic acetylcholine receptor M4” (Vanderbilt University, priority 2016, dated 2021).
Counter-ions that a name gives are not always drawn.

Biological target: T1, Human M4 (Homo sapiens, UniProt P08173)
T1 sequence (P08173 1-479): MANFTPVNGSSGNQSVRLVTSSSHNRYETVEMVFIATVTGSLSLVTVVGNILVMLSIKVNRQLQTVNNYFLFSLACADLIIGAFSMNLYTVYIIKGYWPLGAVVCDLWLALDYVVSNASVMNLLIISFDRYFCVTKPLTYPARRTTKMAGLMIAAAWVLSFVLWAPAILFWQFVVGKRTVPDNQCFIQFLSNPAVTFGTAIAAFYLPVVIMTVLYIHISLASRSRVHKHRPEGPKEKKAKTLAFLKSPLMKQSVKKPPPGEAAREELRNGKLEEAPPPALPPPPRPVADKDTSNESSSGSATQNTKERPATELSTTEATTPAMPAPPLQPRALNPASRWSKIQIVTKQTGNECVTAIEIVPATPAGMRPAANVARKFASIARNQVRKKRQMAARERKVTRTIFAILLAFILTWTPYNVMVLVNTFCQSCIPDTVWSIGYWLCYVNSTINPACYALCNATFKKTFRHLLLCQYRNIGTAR
Test: mAChR M4 cell-based functional assay (calcium flux, potentiation of EC20 acetylcholine response)
Design: Emax: dose or concentration left out as unconfirmed
Details: for Emax: CHO-K1

Structure (SMILES)	EC50 [µM]	Emax [%]
Cc1nc2sc3c(N4CC5CC5C4)nncc3c2c(C)c1Cl (stereo not drawn) [Compound 3, 8-(3-azabicyclo[3.1.0]hexan-3-yl)-3-chloro-2,4-dimethylpyrido[3′,2′:4,5]thieno[2,3-d]pyridazine]	0.48	80.4
COc1ccc(CNc2nncc3c2sc2nc(C)c(Cl)c(C)c23)cc1F [Compound 5, 3-chloro-N-(3-fluoro-4-methoxybenzyl)-2,4-dimethylpyrido[3′,2′:4,5]thieno[2,3-d]pyridazin-8-amine]	1.31	69.4
Cc1nnc2sc3c(NCc4ccc(C(C)(C)O)cc4)nncc3c2c1C [Compound 12, 2-(4-(((3,4-dimethylthieno[2,3-c:4,5-d′]dipyridazin-8-yl)amino)methyl)phenyl)propan-2-ol]	–	99.4
Cc1nnc2sc3c(NCc4ccc(C(C)(C)CO)cc4F)nncc3c2c1C [Compound 16, 2-(4-(((3,4-dimethylthieno[2,3-c:4,5-d′]dipyridazin-8-yl)amino)methyl)-3-fluorophenyl)-2-methylpropan-1-ol]	0.779	77.4
COc1ccc(CNc2nncc3c2sc2nnc(C)c(C)c23)cc1F [Compound 17, N-(3-fluoro-4-methoxybenzyl)-3,4-dimethylthieno[2,3-c:4,5-d′]dipyridazin-8-amine]	–	86.7
Cc1nnc2sc3c(NCc4ccc(-n5cccn5)cc4)nncc3c2c1C [Compound 18, N-(4-(1H-pyrazol-1-yl)benzyl)-3,4-dimethylthieno[2,3-c:4,5-d′]dipyridazin-8-amine]	0.56	72.7

The next lines start with the values.

EC50 [µM]	Emax [%]	Structure (SMILES)
0.54	41	Cc1nc2sc3c(NCc4ccc(OC(F)F)cc4)nncc3c2c(C)c1Cl [Compound 4, 3-chloro-N-(4-(difluoromethoxy)benzyl)-2,4-dimethylpyrido[3′,2′:4,5]thieno[2,3-d]pyridazin-8-amine]
0.34	70	COCCCNc1nncc2c1sc1nc(C)c(Cl)c(C)c12 [Compound 7, 3-chloro-N-(3-methoxypropyl)-2,4-dimethylpyrido[3′,2′:4,5]thieno[2,3-d]pyridazin-8-amine hydrochloride]
0.081	100	Cc1nc2sc3c(NC4CC4)nncc3c2c(C)c1Cl [Compound 11, 3-chloro-N-cyclopropyl-2,4-dimethylpyrido[3′,2′:4,5]thieno[2,3-d]pyridazin-8-amine hydrochloride]
0.727	91.9	[2H]C([2H])(Nc1nncc2c1sc1nnc(C)c(C)c12)c1ccc(C(C)(C)O)cc1 [Compound 13, 2-(4-(((3,4-dimethylthieno[2,3-c:4,5-d′]dipyridazin-8-yl)amino)methyl-d2)phenyl)propan-2-ol]
0.746	89.4	[2H]C([2H])([2H])C(O)(c1ccc(CNc2nncc3c2sc2nnc(C)c(C)c23)cc1)C([2H])([2H])[2H] [Compound 14, 2-(4-(((3,4-dimethylthieno[2,3-c:4,5-d′]dipyridazin-8-yl)amino)methyl)phenyl)propan-1,1,1,3,3,3-d6-2-ol]
–	95.8	Cc1nnc2sc3c(N4CCCC4)nncc3c2c1C [Compound 15, 3,4-dimethyl-8-(pyrrolidin-1-yl)thieno[2,3-c:4,5-d′]dipyridazine]
2.11	51.3	Cc1nnc2sc3c(N4CC(Oc5cccnc5)C4)nncc3c2c1C [Compound 19, 3,4-dimethyl-8-(3-(pyridin-3-yloxy)azetidin-1-yl)thieno[2,3-c:4,5-d′]dipyridazine]
0.214	70.3	Cc1nnc2sc3c(N4CC[C@H](Oc5cccnc5)C4)nncc3c2c1C [Compound 20, (S)-3,4-dimethyl-8-(3-(pyridin-3-yloxy)pyrrolidin-1-yl)thieno[2,3-c:4,5-d′]pyridazine]
1.63	50.4	Cc1nc2sc3c(N4CCCC4)nnc(C)c3c2c(C)c1Cl [Compound 21, 3-Chloro-2,4,5-trimethyl-8-(pyrrolidin-1-yl)pyrido[3′,2′:4,5]thieno[2,3-d]pyridazine]
